We go through 1 molecule from ChEMBL document CHEMBL4619795, “Establishing the Structure-Activity Relationship of Daptomycin” (ACS Med Chem Lett, 2020).

In general, MIC refers to the least concentration at which growth counts as inhibited.

Active and inactive are the calls of the source. The calls are words filed in the database; no cut-off is given here.

Series [1] deals with Staphylococcus aureus. Description: Antibacterial activity against Staphylococcus aureus ATCC 29213 assessed as bacterial growth inhibition in presence of 50 ug/ml calcium ions by CLSI protocol based broth microdilution method. It counts as functional. In general terms: In broth dilution the organism is exposed to a series of concentrations in liquid medium.
Series [2] has as its system Lipid bilayer. Briefly: Binding affinity to POPC large unilamellar vesicles assessed as close proximity of tryptophan and kynurenine residues at 50 uM in presence of phosphatidylglycerol and Ca2+ ions by circular dichroism spectroscopy.
Series [3] deals with Enterococcus faecalis. Description: Antibacterial activity against Enterococcus faecalis ATCC 29212 assessed as bacterial growth inhibition in presence of 50 ug/ml calcium ions by CLSI protocol based broth microdilution method. It counts as functional.
For series [4], the system named is Enterococcus. Briefly: Antibacterial activity against Enterococcus 6 assessed as bacterial growth inhibition in presence of 50 ug/ml calcium ions by CLSI protocol based broth microdilution method. It counts as functional.
The test system of series [5] is Lipid bilayer. Briefly: Binding affinity to POPC/POPG (1:1) large unilamellar vesicles assessed as close proximity of tryptophan and kynurenine residues at 50 uM in presence of phosphatidylglycerol and Ca2+ ions by circular dichroism spectroscopy. In general terms: CD spectra are sensitive to the conformation of chiral molecules.
In series [6] the test system is Enterococcus faecalis. Description: Antibacterial activity against Streptococcus faecalis assessed as bacterial growth inhibition in presence of 50 ug/ml calcium ions by CLSI protocol based broth microdilution method. It counts as functional.
The subject of series [7] is Enterococcus. Description: Antibacterial activity against Enterococcus 60 assessed as bacterial growth inhibition in presence of 50 ug/ml calcium ions by CLSI protocol based broth microdilution method. The series is classed as functional.
Series [8] deals with Lipid bilayer. Description: Binding affinity to POPC large unilamellar vesicles assessed as conformational changes at 50 uM in presence of phosphatidylglycerol and Ca2+ ions by circular dichroism spectroscopy.
The subject of series [9] is Staphylococcus aureus. Briefly: Antibacterial activity against methicillin-resistant Staphylococcus aureus 86 assessed as bacterial growth inhibition in presence of 50 ug/ml calcium ions by CLSI protocol based broth microdilution method. The series is classed as functional.
The subject of series [10] is Staphylococcus aureus. Description: Antibacterial activity against methicillin-resistant Staphylococcus aureus 14 assessed as bacterial growth inhibition in presence of 50 ug/ml calcium ions by CLSI protocol based broth microdilution method. It counts as functional.
Series [11] is described as follows: Toxicity in Galleria mellonella larvae infected with Staphylococcus aureus ATCC 43300 assessed as larvae death at 50 mg/kg measured at 36 hrs post-infection. The series is classed as organism-based. The note with it: in vivo.
For series [12], the system named is Staphylococcus aureus. Briefly: Antibacterial activity against methicillin-resistant Staphylococcus aureus 88 assessed as bacterial growth inhibition in presence of 50 ug/ml calcium ions by CLSI protocol based broth microdilution method. The series is classed as functional.
Series [13] has as its system Staphylococcus aureus. Briefly: Antibacterial activity against Staphylococcus aureus ATCC 43300 infected in Galleria mellonella larvae assessed as increase in larvae survival at 50 mg/kg measured up to 48 hrs post-infection. It counts as functional, organism-based.
Series [14] concerns Staphylococcus aureus. Description: Antibacterial activity against methicillin-resistant Staphylococcus aureus 11 assessed as bacterial growth inhibition in presence of 50 ug/ml calcium ions by CLSI protocol based broth microdilution method. It counts as functional.
Series [15] relates to Lipid bilayer. Description: Binding affinity to POPC/POPG (1:1) large unilamellar vesicles assessed as conformational changes at 50 uM in presence of phosphatidylglycerol and Ca2+ ions by circular dichroism spectroscopy.

Turning to `CCCCCCCCCC(=O)N[C@@H](Cc1c[nH]c2ccccc12)C(=O)N[C@H](CC(N)=O)C(=O)N[C@@H](CC(=O)O)C(=O)N[C@@H]1C(=O)NCC(=O)N[C@@H](CCCN)C(=O)N[C@@H](CC(=O)O)C(=O)N[C@H](C)C(=O)N[C@@H](CC(=O)O)C(=O)NCC(=O)N[C@H](CO)C(=O)N[C@@H]([C@H](C)CC(=O)O)C(=O)N[C@@H](CC(=O)c2ccccc2N)C(=O)O[C@@H]1C`, the MIC in the series with Staphylococcus aureus [1] came out at 0.25 µg/mL; in the series on Enterococcus faecalis [3], 4 µg/mL; with Enterococcus [4], 2 µg/mL; in the series on Enterococcus faecalis [6], 4 µg/mL; with Enterococcus [7], 2 µg/mL; in the series on Staphylococcus aureus [9], 0.5 µg/mL. In addition, the MIC came out at 0.5 µg/mL in the series on Staphylococcus aureus [10], 0.25 µg/mL with Staphylococcus aureus [12] and 0.5 µg/mL in the series on Staphylococcus aureus [14]. The result in the series on Lipid bilayer [2], with Lipid bilayer [5], in the series on Lipid bilayer [8] and with Lipid bilayer [15] was Active. The Activity entry in series [11] is listed as “Toxic”. Also, the outcome with Staphylococcus aureus [13] was inactive.
